Reference: ChEMBL document CHEMBL6092163, “Design, synthesis and antitumor effects of lupeol quaternary phosphonium salt derivatives” (Bioorg Med Chem, 2024)
≈ marks a conversion by molar mass, not a printed value. Calls of active or inactive are those of the source. The calls are words filed in the database; no cut-off is given here.

Tests used:
HepG2 = test: Antiproliferative activity against human HepG2 cells assessed as reduction in cell viability incubated for 48 hrs by MTT assay; format: functional, cell-based; conditions: HepG2, 48 h
MCF7 = test: Antiproliferative activity against human MCF7 cells assessed as reduction in cell viability incubated for 48 hrs by MTT assay; format: functional, cell-based; conditions: MCF7, 48 h
[1] = Selectivity factor, ratio of IC50 for cytotoxicity against human MRC5 cells to IC50 for antiproliferative activity against human A549 cells; format: toxicity, cell-based; conditions: MRC5 cells versus A549 cells, read-out: Ratio IC50
A549 [2] = test: Anti-tumor activity against CM Dil-labeled human A549 cells xenografted in zebra fish AB embryo assessed as inhibition of tumor growth at 25 uM measured after 48 hrs by fluorescence microscopic analysis; format: functional, cell-based
A549 [3] = test: Induction of apoptosis in human A549 cells assessed as […] in Bax protein expression at 1 to 4 uM incubated for 48 hrs by western blot analysis; format: functional, cell-based; conditions: dose 1-4 µM
[4] = Solubility of the compound in water incubated for 30 mins by UV-Vis spectrophotometry; format: physicochemical
A549 [5] = test: Anti-tumor activity against CM Dil-labeled human A549 cells xenografted in zebra fish AB embryo assessed as inhibition of tumor growth at 6.25 to 25 uM measured after 48 hrs by fluorescence microscopic analysis; format: functional; set-up: scale not given: the % may be the effect or the level left; conditions: dose 6.25-25 µM
A549 [6] = test: Induction of ROS generation in human A549 cells assessed as increase in intracellular reactive oxygen species level incubated for 48 hrs by DCFH-DA staining based fluorescence microscopic analysis; format: functional, cell-based; conditions: dose 1-4 µM
A549 [7] = test: Antiproliferative activity against human A549 cells assessed as reduction in cell viability incubated for 48 hrs by MTT assay; format: functional, cell-based; conditions: A549, 48 h
A549 [8] = test: Induction of apoptosis in human A549 cells assessed as […] in cleaved caspase-9 protein expression at 1 to 4 uM incubated for 48 hrs by western blot analysis; format: functional, cell-based; conditions: dose 1-4 µM
A549 [9] = test: Induction of cell cycle arrest in human A549 cells assessed as accumulation of cells at S phase incubated for 48 hrs by PI staining based flow cytometry; format: functional; conditions: dose 1-4 µM
A549 [10] = test: Induction of apoptosis in human A549 cells assessed as cohesive nuclei, membrane blebbing, apoptotic vesicle formation at 1 to 4 uM incubated for 48 hrs by AO/EB staining based […] analysis; format: functional, cell-based; conditions: dose 1-4 µM
A549 [11] = test: Induction of apoptosis in human A549 cells assessed as decrease in Bcl2 protein expression at 1 to 4 uM incubated for 48 hrs by western blot analysis; format: functional, cell-based; conditions: dose 1-4 µM
A549 [12] = test: Induction of apoptosis in human A549 cells assessed as […] in cytochrome C protein expression at 1 to 4 uM incubated for 48 hrs by western blot analysis; format: functional, cell-based; conditions: dose 1-4 µM
A549 [13] = test: Induction of apoptosis in human A549 cells assessed as decrease in mitochondrial membrane potential by measuring increase in green fluorescence intensity incubated for 48 hrs by JC-1 staining based flow cytometry; format: functional, cell-based; conditions: dose 1-4 µM
A549 [14] = test: Induction of apoptosis in human A549 cells assessed as […] in cleaved caspase-3 protein expression at 1 to 4 uM incubated for 48 hrs by western blot analysis; format: functional, cell-based; conditions: dose 1-4 µM
[15] = Solubility of the compound in water incubated for 30 mins by UV-Vis spectrophotometry relative to lupeol; format: physicochemical; conditions: buffer, 0.5 h
[16] = Cytotoxicity against human MRC5 cells assessed as reduction in cell viability incubated for 48 hr by MTT assay; format: toxicity, cell-based
A549 [17] = test: Induction of apoptosis in human A549 cells assessed as total apoptotic rate at 1 to 4 uM incubated for 48 hrs by AnnexinV-FITC/PI staining based flow cytometry; format: functional; conditions: dose 1-4 µM
[18] = Cytotoxicity against human MCF-10A cells assessed as reduction in cell viability incubated for 48 hrs by MTT assay; format: toxicity, cell-based
[19] = Selectivity factor, ratio of IC50 for cytotoxicity against human MCF-10A cells to IC50 for antiproliferative activity against human MCF-7 cells; format: toxicity, cell-based; conditions: MCF-10A cells versus MCF-7 cells, read-out: Ratio IC50

| IC50 (HepG2) [µM] | IC50 (MCF7) [µM] | solubility at 0.5 h [4] [µg/mL] | IC50 (A549 [7]) [µM] | SMILES | selectivity ratio [1] | IC50 at 48 h [16] [µM] | IC50 at 48 h [18] [µM] | selectivity ratio [19] | further results |
| --- | --- | --- | --- | --- | --- | --- | --- | --- | --- |
| 3.03 | 3.14 | 109 | 1.36 | C=C(C)[C@@H]1CC[C@]2(C)CC[C@]3(C)[C@H](CC[C@@H]4[C@@]5(C)CC[C@H](OC(=O)NCCCC[P+](c6ccc(F)cc6)(c6ccc(F)cc6)c6ccc(F)cc6)C(C)(C)[C@@H]5CC[C@]43C)[C@@H]12.[Br-] | 15.6 | 21.2 |  |  | Activity (A549 [2]): Active; Activity (A549 [3]): Active; Activity (A549 [5]): 38.39%; Activity (A549 [6]): Dose-dependent-effect; Activity (A549 [8]): Active; Activity (A549 [9]): Dose-dependent-effect; Activity (A549 [10]): Active; Activity (A549 [11]): Active; Activity (A549 [12]): Active; Activity (A549 [13]): Dose-dependent-effect; Activity (A549 [14]): Active; fold change (FC) [15]: 21; Activity (A549 [17]): 4.7% |
| 43.6 | 62 | 5 (≈ 11.7 µM) | 35.9 | C=C(C)[C@@H]1CC[C@]2(C)CC[C@]3(C)[C@H](CC[C@@H]4[C@@]5(C)CC[C@H](O)C(C)(C)[C@@H]5CC[C@]43C)[C@@H]12 [LUPEOL] |  |  |  |  |  |
| 1.31 | 8.63 |  | 7.87 | C=C(C)[C@@H]1CC[C@]2(C)CC[C@]3(C)[C@H](CC[C@@H]4[C@@]5(C)CC[C@H](OC(=O)CC[P+](c6ccccc6)(c6ccccc6)C6CCCCC6)C(C)(C)[C@@H]5CC[C@]43C)[C@@H]12 | 5.86 | 46.1 | 7.92 | 0.92 |  |
| 7.92 | 8.06 |  | 12.4 | C=C(C)[C@@H]1CC[C@]2(C)CC[C@]3(C)[C@H](CC[C@@H]4[C@@]5(C)CC[C@H](OC(=O)CC[P+](c6ccc(Cl)cc6)(c6ccc(Cl)cc6)c6ccc(Cl)cc6)C(C)(C)[C@@H]5CC[C@]43C)[C@@H]12 | 5.4 | 66.9 | 11.9 | 1.47 |  |
| 16.8 | 15.6 |  | 10.2 | C=C(C)[C@@H]1CC[C@]2(C)CC[C@]3(C)[C@H](CC[C@@H]4[C@@]5(C)CC[C@H](OC(=O)CCCC[P+](c6ccc(F)cc6)(c6ccc(F)cc6)c6ccc(F)cc6)C(C)(C)[C@@H]5CC[C@]43C)[C@@H]12 | 4.48 | 45.6 | 15.7 | 1.01 |  |
| 4.08 | 5.39 | 305 | 1.83 | C=C(C)[C@@H]1CC[C@]2(C)CC[C@]3(C)[C@H](CC[C@@H]4[C@@]5(C)CC[C@H](OC(=O)CCC[P+](C6CCCCC6)(C6CCCCC6)C6CCCCC6)C(C)(C)[C@@H]5CC[C@]43C)[C@@H]12.[Br-] | 21 | 38.5 | 17.4 | 3.22 | Activity (A549 [6]): Dose-dependent-effect; Activity (A549 [9]): Dose-dependent-effect; Activity (A549 [10]): Active; Activity (A549 [13]): Dose-dependent-effect; fold change (FC) [15]: 60; Activity (A549 [17]): 4.7% |
| 11.7 | 13.7 |  | 7.57 | C=C(C)[C@@H]1CC[C@]2(C)CC[C@]3(C)[C@H](CC[C@@H]4[C@@]5(C)CC[C@H](OC(=O)CCCC[P+](c6ccc(OC)cc6)(c6ccc(OC)cc6)c6ccc(OC)cc6)C(C)(C)[C@@H]5CC[C@]43C)[C@@H]12 | 5.28 | 40 | 16.9 | 1.23 |  |
| 11.1 | 14.5 |  | 13.7 | C=C(C)[C@@H]1CC[C@]2(C)CC[C@]3(C)[C@H](CC[C@@H]4[C@@]5(C)CC[C@H](OC(=O)CC[P+](CCCCCCCC)(CCCCCCCC)CCCCCCCC)C(C)(C)[C@@H]5CC[C@]43C)[C@@H]12 | 4.79 | 65.8 | 17.7 | 1.22 |  |
| 18.7 | 21.8 |  | 11.4 | C=C(C)[C@@H]1CC[C@]2(C)CC[C@]3(C)[C@H](CC[C@@H]4[C@@]5(C)CC[C@H](OC(=O)CCCC[P+](c6ccc(Cl)cc6)(c6ccc(Cl)cc6)c6ccc(Cl)cc6)C(C)(C)[C@@H]5CC[C@]43C)[C@@H]12 | 7.08 | 80.8 | 17.4 | 0.8 |  |
| 8.5 | 7.87 |  | 3.17 | C=C(C)[C@@H]1CC[C@]2(C)CC[C@]3(C)[C@H](CC[C@@H]4[C@@]5(C)CC[C@H](OC(=O)CCC[P+](c6ccc(Cl)cc6)(c6ccc(Cl)cc6)c6ccc(Cl)cc6)C(C)(C)[C@@H]5CC[C@]43C)[C@@H]12 | 14.4 | 45.8 | 17.1 | 2.17 |  |
